In US20240335404A1, “SUBSTITUTED ESTERS CONTAINING POLYOLS AND SACCHARIDES FOR TREATING HEPATOTOXICITY AND FATTY LIVER DISEASES” (SINEW PHARMA INC., priority 2015, published 2024):
Where two headings read alike, the source gives them in different places. Values belong to the molecule of their own block, whether it stands above or below them.

Tests used:
HepG2 fatty liver cells = assay: TG content in oleic acid-induced fatty liver cells from HepG2; format: cell-based, human; details: tested substances 1.0 μM
Protocol: The activity of the various ingredients as described herein, including mannitol and sucralose and others, in reduction of fat content was analyzed by using human hepatoma cell line Hep G2.
HepG2 cell lines (15×10^6 cells) were cultured in DMEM culture No. B, incubated in an incubator with 5% CO2 at 37° C. for 24 hours, cultured in DMEM culture No. C (serum-free medium) for 24 hours, and finally cultured in DMEM culture No. D (containing oleate/albumin complex) for another 48 hours to induce HepG2 cell lines to form fatty liver cells.
HepG2 cell lines were divided into six groups, including: (1) Blank: no treatment; (2) DMSO group: cells from Blank were treated with dimethyl sulfoxide (DMSO); (3) Control: induction with oleic acid to form fatty liver cells; (4) Vehicle group: fatty liver cells formed by induction with oleic acid were treated with DMSO; (5) Positive control: fatty liver cells were treated with silyrnarin; and (6) Test Group: fatty liver cells were treated with various compounds of the present invention.
After incubation for 72 hours, the treated cells from each group were successively washed twice in PBS, and then incubated with 0.5 ml of trypsin/EDTA for 3 minutes. Afterwards, the cells were scraped with 2 ml of PBS and then transferred to the centrifuge tube to be shattered by ultrasonic. A volume of 20 μl cell extracts was taken to determine the content of protein. TG determination was performed using commercially available combination of agents (Randox). The TG content obtained above was divided by the protein content to get a ratio, which represented the relative content of TG in cells.
The equation for calculating reduction rate (%) of TG was as follows: [1−(TG content of Test Group−TG content of Blank)/(TG content of Oleic acid induction Group−TG content of Blank)]×100%.

CYP2E1 = CYP2E1 (Homo sapiens, UniProt P05181); details: microsomes, 30 min, pH 7.4
Protocol: After addition of the test sample, the amount of CYP450 isozyme metabolite standard 6-OH-CZX (6-Hydroxy-Chlorzoxazone) is specific used for calculation of the CYP450 isozyme (CYP2E1) inhibition ratio of the test sample by using the amount of 6-OH-CZX of the control group as the baseline.
All samples were tested in triplicate. To determine the percentage inhibition, each test compound was dissolved in 1, 2, 4 μg/mL to three different concentrations. The CYP2E1 activity levels in the presence of the test compounds were compared with the control incubations. The 500-μL reaction mixture, containing 0.5 mg of microsomal protein, was incubated with 320 μM CZX in the presence of 5 mM MgCl2 and 1 mM NADPH in 50 mM phosphate buffer with pH 7.4 at 37° C. for 30 min. The reaction was terminated by ice-cold acetonitrile, and then 4-hydroxyl tolbutamide was added as an internal standard. The organic phase was evaporated to dryness and reconstituted into the mobile phase (methanol:water=1:1) prior to liquid chromatography-tandem mass spectrometry (LC-MS/MS) analysis. An API 3000 triple-quadrupole mass spectrometer equipped with an ion-spray (ESI) source was used to determine 6-OH-CZX in the human liver microsomes. The ESI interface was used in the positive-ion mode. The 6-OH-CZX was monitored at a transition of m/z 284.5→185.9.
The CYP450 isozyme activity levels in the presence of the test compounds were compared with the control incubations.

[1] = tested on: Liver Injuries Induced by CCl4; assay: Liver injuries induced by CCl4 in mice (GSP, AST/ALT, HAI); format: in vivo; details: CCl4-induced liver injuries; dose less than or equivalent to 100 mg per person
Protocol: In the normal control, animals were administered with normal saline by intraperitoneal injection. In the control group of CCl4 induced liver injuries, animals were intraperitoneally injected with 10 ml/kg CCl4 (40% in corn oil) to induce hepatotoxicity. In the experimental group, animals were intraperitoneally injected with 10 ml/kg CCl4 (40% in corn oil) to induce hepatotoxicity, and 4 hours later, different ingredients of the present invention were administered by tube feeding. Blood was collected from the mice before administration with the ingredients of the present invention or at 24 hours after administration with the ingredients of the present invention for AST/ALT assays. Finally, animals were sacrificed at day 2 and blood were collected for AST/ALT assay and histological analysis was performed.
On the other hand, other experimental groups of mice were fed with the ingredients of the present invention for 12 weeks and the mice were subjected to GSP tests.
(§1) Liver damage is quantified by measuring plasma AST and ALT activity. AST and ALT are common indicators of hepatotoxicity and are measured by using the Synchron LXi 725 system (Beckman Instruments, U.S.).
Following scarification of the rats, histological analysis was performed. Liver samples were fixed with 10% phosphate-buffered formalin, dehydrated an embedded in paraffin, Sections were prepared in 5 μm thickness and then stained with hematoxylin and eosin and subjected to Periodic acid Schiff stain (PAS). The stained sections were observed under the optic microscope.
After the study was completed, all rats were subjected to GSP test. Rats were i.v. injected with 0.4 g/ml BW galactose solution 0.5 g/kg within 30 seconds and one blood sample was collected at 5, 10, 15, 30, 45 and 60 minutes post injection from the tail vein. Colorimetric galactose dehydrogenase is used to quantify the concentration of galactose and the test concentration ranges from 50 to 1,000 μg/ml. The within-day variation of each concentration is calculated using standard deviation and coefficient of variation (CV) and the maximum allowable coefficient of variation is 10% CV, whereas day-to-day variation is examined by comparing the slope and intercept of calibration curves. The GSP is the blood galactose concentration obtained 60 seconds after stopping the 30-second injection.
All data are represented in mean±standard deviation (SD) and the results are calculated using ANOVA to determine the significance. Statistical Package of the Social Science program (Version 13, SPSS Inc.) is used for calculations followed by post hoc test to examine the least significant difference for multiple comparisons so as to confirm the significant differences between groups and the average difference between groups was significant p<0.05.

[2] = tested on: Liver Injuries Induced by APAP; assay: Liver injuries induced by APAP in rats (GSP, AST/ALT, HAI, survival); format: in vivo, SD (Sprague-Dawley) rats; details: APAP 2,000 mg/kg, 140 mg/kg of NAC followed by 5 × 70 mg/kg NAC at 4 h intervals
Protocol: Male SD (Sprague-Dawley) rats weighing 175-280 g were purchased from the National Laboratory Animal Center (NLAC), Taiwan. The study was conducted in accordance with the Guidelines for Conducting Animal Studies of the National Health Research Institute and all rats were placed in the air/humidity controlled environment under the 12 hours of day/12 hours of night cycle and with unlimited water and food supply. During the course of the study, the weights of rats were monitored continuously with normal water supply.
In the normal control (Group 1), animals were not fed with APAP. In the control group of APAP-induced liver injuries (Group 2), animals were fed with a single dose of APAP in the amount of 2,000 mg per kilogram of body weight to induce hepatotoxicity. In the positive control group of treatment with NAC (Group 3), animals were fed with a single dose of APAP in the amount of 2,000 mg per kilogram of body weight to induce hepatotoxicity, and 4 hours later, a 24-hour treatment period by tube feeding was started, including first administration of 140 mg of NAC (per kilogram of body weight) and later administration of 70 mg of NAC (per kilogram of body weight) every 4 hours for five times. In the experimental group (Group 4), animals were fed with a single dose of APAP in the amount of 2,000 mg per kilogram of body weight to induce hepatotoxicity, and 4 hours later, a 24-hour treatment period by tube feeding was started, including six dosing with the ingredients of the present invention every 4 hours, as follows: • (a) (Group 4.1): administration of mannitol at a dose less than or equivalent to 100 mg per person every 4 hours for 24 hours, • (b) (Group 4.2): administration of double dose of mannitol as in Group 4.1 every 4 hours for 24 hours, • (c) (Group 4.3): administration of sucralose at a dose less than or equivalent to 100 mg per person every 4 hours for 24 hours, • (d) (Group 4.4): administration of double dose of sucralose of Group 4.3 every 4 hours for 24 hours, • (e) (Group 4.5): administration of a combination of 0.5 times the dose of mannitol as in Group 4.1 and 0.5 times the dose of sucralose as in Group 4.3 per kilogram of body weight every 4 hours for 24 hours, • (f) (Group 4.6): administration of a combination of the dose of mannitol as in Group 4.1 and the dose of sucralose as in Group 4.3 every 4 hours for 24 hours, • (g) (Group 4.7): administration of a combination of 1.5 times the dose of mannitol as in Group 4.1 and 1.5 times the dose of sucralose as in Group 4.3 every 4 hours for 24 hours, • (h) (Group 4.8): administration of a combination of double dose of mannitol as in Group 4.1 and double dose of sucralose as in Group 4.3 every 4 hours for 24 hours, and • (i) (Group 4.9): first administration of 140 mg of NAC per kilogram of body weight and later administration of a combination of 70 mg of NAC plus double dose of mannitol as in Group 4.1 and double dose of sucralose as in Group 4.3 every 4 hours for five times.
After the 24-hour treatment period, blood was collected from the tail artery of the rats for AST/SLT assays. Subsequently, rats were subjected to GSP tests. Finally, rats were sacrificed and histological analysis was performed.
After completion of the treatments, rats were sacrificed under ether anesthesia, and blood was collected from the tail artery of the rats and placed in a test tube containing EDTA. The plasma was centrifuged at 13,000 at 4° C. for 15 minutes and the isolated plasma was transferred to Eppendorf tubes in aliquots and stored at −80° C.
as §1
Following scarification of the rats, histological analysis was performed.

Sequence of CYP2E1 (P05181 whole entry): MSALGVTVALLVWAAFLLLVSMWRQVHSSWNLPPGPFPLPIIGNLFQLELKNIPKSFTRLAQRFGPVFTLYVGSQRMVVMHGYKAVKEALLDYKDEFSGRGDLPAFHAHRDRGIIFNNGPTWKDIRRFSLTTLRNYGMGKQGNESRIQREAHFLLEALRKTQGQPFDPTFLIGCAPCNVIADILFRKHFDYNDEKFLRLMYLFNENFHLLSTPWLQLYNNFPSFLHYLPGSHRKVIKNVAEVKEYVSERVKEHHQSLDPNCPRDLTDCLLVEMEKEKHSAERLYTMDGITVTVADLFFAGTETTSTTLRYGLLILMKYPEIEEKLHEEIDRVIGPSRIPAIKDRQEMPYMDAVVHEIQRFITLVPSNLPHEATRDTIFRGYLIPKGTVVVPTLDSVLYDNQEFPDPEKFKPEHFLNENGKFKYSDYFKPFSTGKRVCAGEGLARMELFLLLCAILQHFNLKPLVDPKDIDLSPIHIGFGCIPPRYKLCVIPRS

Molecule: Oc1cc(O)c2c(c1)O[C@H](c1ccc(O)c(O)c1)[C@@H](O)C2 [(+)-Catechin]
- TG reduction rate (%) (HepG2 fatty liver cells): 29.57 ± 4.02%

Molecule: Oc1cc(O)c2c(c1)O[C@H](c1ccc(O)c(O)c1)[C@H](O)C2 [(−)-Epicatechin]
- TG reduction rate (%) (HepG2 fatty liver cells): 10.76 ± 8.92%

Molecule: Oc1cc(O)c2c(c1)O[C@H](c1cc(O)c(O)c(O)c1)[C@H](O)C2 [(−)-Epigallocatechin]
- TG reduction rate (%) (HepG2 fatty liver cells): 36.78 ± 6.67%

Molecule: COc1ccc(O)c(C(C)(C)C)c1 [Butylated hydroxyanisole]
- TG reduction rate (%) (HepG2 fatty liver cells): 6.21 ± 3.8%

- CYP 2E1 inhibition ratio (%) (CYP2E1; 10 μM): 11.2 ± 2.4%
- CYP 2E1 inhibition ratio (%) (CYP2E1; 50 μM): 51.2 ± 3.2%
Molecule: CCN(CC)C(=S)S [DDTC, Diethyldithiocarbamic acid]

Molecule: COc1ccc([C@@H]2CC(=O)c3c(O)cc(O[C@@H]4O[C@H](CO[C@@H]5O[C@@H](C)[C@H](O)[C@@H](O)[C@H]5O)[C@@H](O)[C@H](O)[C@H]4O)cc3O2)cc1 [Didymin]
- TG reduction rate (%) (HepG2 fatty liver cells): 20.37 ± 12.69%

Molecule: O=c1c(O)c(-c2ccc(O)c(O)c2)oc2c(O[C@@H]3O[C@H](CO)[C@@H](O)[C@H](O)[C@H]3O)c(O)cc(O)c12 [Gossypin]
- TG reduction rate (%) (HepG2 fatty liver cells): 20.25 ± 4.63%

Molecule: COc1ccc([C@@H]2CC(=O)c3c(O)cc(O[C@@H]4O[C@H](CO[C@@H]5O[C@@H](C)[C@H](O)[C@@H](O)[C@H]5O)[C@@H](O)[C@H](O)[C@H]4O)cc3O2)cc1O [Hesperidin]
- TG reduction rate (%) (HepG2 fatty liver cells): 34.81 ± 5.25%

Molecule: O=c1c(O)c(-c2ccc(O)cc2)oc2cc(O)cc(O)c12 [Kaempferol]
- ALT [1]: 128 ± 40 IU/L
- AST [1]: 198 ± 105 IU/L
- GSP [1]: 456 ± 101 mg/L

Molecule: COc1ccc(-c2cc(=O)c3c(O)cc(O[C@@H]4O[C@H](CO[C@@H]5O[C@@H](C)[C@H](O)[C@@H](O)[C@H]5O)[C@@H](O)[C@H](O)[C@H]4O)cc3o2)cc1 [Linarin]
- TG reduction rate (%) (HepG2 fatty liver cells): 9.24 ± 12.34%

Molecule: O=c1cc(-c2ccc(O)c(O)c2)oc2cc(O[C@@H]3O[C@H](CO)[C@@H](O)[C@H](O)[C@H]3O)cc(O)c12 [Luteolin-7-glucoside]
- TG reduction rate (%) (HepG2 fatty liver cells): 19.33 ± 4.59%

Molecule: CC(=O)N[C@@H](CS)C(=O)O [NAC, N-acetylcysteine, reference compound]
- ALT [2]: 221 ± 69 IU/L
- AST [2]: 428 ± 74 IU/L
- GSP [2]: 393 ± 68 mg/L
- Total HAI score [2]: 4.2 ± 0.8
- Survival (Day 14, n/n) ([2]; Day 14): 3/6

Molecule: COc1ccc([C@@H]2CC(=O)c3c(O)cc(O[C@@H]4O[C@H](CO)[C@@H](O)[C@H](O)[C@H]4O[C@@H]4O[C@@H](C)[C@H](O)[C@@H](O)[C@H]4O)cc3O2)cc1O [Neohesperidin]
- TG reduction rate (%) (HepG2 fatty liver cells): 13.29 ± 7.21%

Molecule: O=C(O)c1ccc(O)c(O)c1 [Protocatechuic acid]
- TG reduction rate (%) (HepG2 fatty liver cells): 18.57 ± 7.6%

Molecule: C[C@@H]1O[C@@H](Oc2c(-c3ccc(O)c(O)c3)oc3cc(O)cc(O)c3c2=O)[C@H](O)[C@H](O)[C@H]1O [Quercitrin]
- TG reduction rate (%) (HepG2 fatty liver cells): 9.15 ± 9.24%

Molecule: COc1ccc(-c2cc(=O)c3c(O)cc(O)c(-c4cc(-c5cc(=O)c6c(O)cc(OC)cc6o5)ccc4OC)c3o2)cc1 [Sciadopitysin]
- TG reduction rate (%) (HepG2 fatty liver cells): 21.83 ± 5.04%

Molecule: O=C([O-])c1ccccc1.[Na+] [Sodium benzoate]
- TG reduction rate (%) (HepG2 fatty liver cells): 14.35 ± 4.86%

Molecule: O=S(=O)([O-])NC1CCCCC1.[Na+] [Sodium cyclamate]
- TG reduction rate (%) (HepG2 fatty liver cells): 4.77 ± 4.49%

Molecule: COc1c(O)cc(O)c2c(=O)cc(-c3ccccc3)oc12 [Wongonin]
- TG reduction rate (%) (HepG2 fatty liver cells): 20.78 ± 1.12%

Molecule: O=c1c(O)c(-c2ccc(O)c(O)c2)oc2cc(O)cc(O)c12 [quercetin]
- ALT [1]: 93 ± 26 IU/L
- AST [1]: 115 ± 40 IU/L
- GSP [1]: 286 ± 70 mg/L
- Total HAI score [1]: 1.1 ± 0.7

Molecule: (−)-Epicatechin-3-gallate
- TG reduction rate (%) (HepG2 fatty liver cells): 32.7 ± 4.33%

Molecule: epigallocetechin-3-gallate
- ALT [1]: 95 ± 36 IU/L
- AST [1]: 144 ± 49 IU/L
- GSP [1]: 312 ± 140 mg/L
- Total HAI score [1]: 1.7 ± 0.9
